The values below come from US20210078932A1, “3,4-DIHYDROXYPHENETHYL 3-HYDROXYBUTANOATE, PREPARATION AND USE THEREOF” (XI'AN JIAOTONG UNIVERSITY, priority 2019, published 2021).

Assay [1] has as its system rats with brain fatigue. Put plainly: Open field test in sleep-deprivation brain fatigue rat model. The format is in vivo, SD rats. As to conditions: for amelioration of manic mood of the rats with brain fatigue: overall conclusion after administration; for average moving speed / number of movements: sleep-deprived rats, drug intragastrically daily, compared with brain fatigue group; for average moving speed: FIG. 2A; for number of movements: FIG. 2B. On the procedure: (§1) 8-week-old adult male SD rats (body weight: 250 g) purchased from Experimental Animal Center of The Second Military Medical University in Shanghai were used in the experiments. The rats were kept in an animal room with controlled temperature (22° C. to 28° C.) and humidity (60%). The light of the room was maintained in a 12 h/12 h day/night light cycle. The rats were able to eat and drink freely during the experiments. A brain fatigue rat model was established by using the sleep deprivation method in the experiments. The experimental rats were divided into five groups, with 10 rats in each group.
The five groups are as follows: (1) a normal feeding group with normal saline intragastrically administered daily (hereinafter referred to as the control group); (2) a brain fatigue model group established by the sleep deprivation method, with normal saline intragastrically administered daily (hereinafter referred to as the brain fatigue group); (3) a brain fatigue model group established by the sleep deprivation method, with 35 mg/kg of hydroxytyrosol acetate intragastrically administered daily (hereinafter referred to as HTac group, as shown in the following table); (4) a brain fatigue model group established by the sleep deprivation method, with 23.6 mg/kg of […] intragastrically administered daily (hereinafter referred to as HBET group, as shown in the following table); (5) a brain fatigue model group established by the sleep deprivation method, with 42.9 mg/kg of hydroxytyrosol hydroxybutyrate intragastrically administered daily (hereinafter referred to as HTHB group, as shown in Table 1).
The rats were preconditioned in the animal room for one week, during which the drugs were intragastrically administered. From the second day of the acquisition training of the water maze experiment, the rats other than the control group were started to be subjected to the small-platform-over-water sleep deprivation to establish the brain fatigue stress model. The sleep deprivation apparatus was mainly composed of two parts: a water tank and a platform disposed in the tank. The tank was filled with water. The size of the platform can only for the hind legs of the rat to stand. The platform was fixed to the bottom of the tank, and the top surface of the platform is above the water surface. The rat was placed on the platform for sleep deprivation. Once the rat fell asleep, its muscle tension would decrease and its center of gravity would move forward, which would cause the rat to fall into the water and suddenly be awakened. In order to avoid this, the rat must keep a slight grip on the edge of the platform, which deprived the sleep of the rat and caused brain fatigue.
The open field test is a classic behavioral test to evaluate emotion of rodents, which is based on the principle that the rodents have instincts to fear an open field and have spontaneous phobotaxis activities. Abnormalities in phobotaxis can indicate emotional abnormalities of rodents. The apparatus of the open field test was mainly composed of a black PVC box and a video tracking system. The box was 80 cm in both length and width and 50 cm in height. A camera of the video tracking system was hung at a height of 1.5 meters from the bottom of the box. The rat can move freely in the open field box, and the camera facing the box recorded the movements of the rat. By using the video tracking system, the interior of the box was divided into 16 squares arranged in 4×4 matrix, in which 12 surrounding squares were defined as a surrounding area, and 4 internal squares were defined as a central area, respectively.
The open field test follows the last day of the water maze experiment. After the water maze experiment, each rat was put back into the cage and rested for 10 minutes. Then in the open field test, the rat was placed at the center of the box bottom in a quiet environment, and was video recorded by the camera for 5 minutes, after which the rat was removed from the box. […]

Assay [2] concerns rats with brain fatigue. Briefly: Morris water maze experiment (exploration test) in sleep-deprivation brain fatigue rat model. The format is in vivo, SD rats. On the procedure: as §1, with “group. […]” for “group.”

Turning to `CCOC(=O)CC(C)O` (stereo not drawn) [HBET, ethyl β-hydroxybutyrate], in the assay with rats with brain fatigue [1], the “amelioration of manic mood of the rats with brain fatigue” value (shortened to “amelioration of manic mood of the rats”) is reported as “significantly ameliorated to certain degrees” and the average moving speed entry was “significantly different”.
`CC(O)CC(=O)OCCc1ccc(O)c(O)c1` (centres unmarked) [HTHB, 3,4-dihydroxyphenethyl 3-hydroxybutanoate]: the “improvement of learning and memory abilities of the rats with brain fatigue” value in the assay on rats with brain fatigue [2] (overall conclusion, compared with hydroxytyrosol acetate and ethyl β-hydroxybutyrate) was “more obviously improved the learning and memory abilities”. Also, the “swimming time in the quadrant IV (percentage)” value in the assay with rats with brain fatigue [2] (sleep-deprived rats, drug intragastrically daily, compared with brain fatigue group, FIG. 1A) was “significantly different”. Further, in the assay on rats with brain fatigue [1] (overall comparison, in some indicators), the “amelioration of manic mood compared with hydroxytyrosol acetate and ethyl β-hydroxybutyrate” value is “better amelioration of manic mood”. Moreover, in the assay on rats with brain fatigue [1], the “amelioration of manic mood of the rats” value was “significantly ameliorated to certain degrees”, the average moving speed result was “significantly different” and the number of movements result is “significantly different”.
Take hydroxytyrosol acetate [HTac]: in the assay on rats with brain fatigue [1], the “amelioration of manic mood of the rats” value is reported as “significantly ameliorated to certain degrees”, the average moving speed result is given as “significantly different” and the number of movements entry is “significantly different”.
